Reference: patent US20240228501A1, “IMIDAZOLE-CONTAINING CONDENSED RING DERIVATIVE, PREPARATION METHOD THEREFOR, AND APPLICATION THEREOF IN MEDICINE” (CHANGCHUN GENESCIENCE PHARMACEUTICAL CO., LTD., priority 2021, published 2024)

Molecular target: T1, human NK-3 receptor (Homo sapiens, UniProt P29371)
T1 construct: expressed in transfected cells; host or cells: HEK293
T1 sequence (P29371 1-465): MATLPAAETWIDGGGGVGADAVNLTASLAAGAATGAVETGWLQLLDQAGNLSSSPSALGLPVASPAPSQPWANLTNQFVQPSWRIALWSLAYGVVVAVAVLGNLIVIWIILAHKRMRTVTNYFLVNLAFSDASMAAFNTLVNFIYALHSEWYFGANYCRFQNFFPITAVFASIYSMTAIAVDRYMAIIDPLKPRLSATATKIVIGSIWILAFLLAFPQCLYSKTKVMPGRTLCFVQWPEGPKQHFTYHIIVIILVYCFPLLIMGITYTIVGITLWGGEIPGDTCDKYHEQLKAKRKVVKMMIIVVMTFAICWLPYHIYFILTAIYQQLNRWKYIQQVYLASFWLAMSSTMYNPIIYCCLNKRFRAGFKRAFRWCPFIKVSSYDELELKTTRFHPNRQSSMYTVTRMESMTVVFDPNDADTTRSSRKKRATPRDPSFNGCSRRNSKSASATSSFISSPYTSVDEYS
Assay: Antagonistic activity on human NK-3 receptor in human NK-3R/HEK293 stably transfected cells (Fluo-4, FLIPR, Neurokinin B as agonist)
Format: cell-based
Conditions: human NK-3R/HEK293 cells
Description: Test Example 1: Determination of Activity of Compounds of the Present Invention on Human NK-3 Receptor
This method is used to determine antagonistic effects of the compounds of the present invention on the activity of human NK-3 receptor proteins expressed in cell lines stably transfected with human NK-3R/HEK293.
2.1 The cell lines stably transfected with human NK-3R/HEK293 were inoculated in a 384-well cell culture plate at a inoculation density of 12,000 cells/well/25 μL, and cultured at 37° C. and 5% CO2 overnight;
2.2 20× Component A was frozen and thawed to room temperature, diluted 2× with Assay Buffer to working concentration, and kept at room temperature for later use;
2.3 The cell culture plate was equilibrated at room temperature for 10 min, the culture medium was removed, and 20 μL of Assay Buffer and 20 μL of 2× Component A […] were added, followed by centrifugation at 200 g at room temperature for 3-5 sec, and incubation at 37° C. for 2 h;
2.4 The compound was diluted 3 times with DMSO in 384 PP_DMSO plate, and then 240 nl/well of the compound was transferred into a working plate with Echo 550, centrifugated at 200 g at room temperature for 1 min; 40 μl of Assay Buffer was added into the working plate, centrifugated at 200 g at room temperature for 1 min, and then fully mixed in an oscillator at 2500 rpm for 20 min, and then centrifugated at 200 g at room temperature for 1 min for later use;
2.5 2.5 nM Neurokinin B TFA (6×) was prepared from Assay Buffer, 50 uL of which was transferred onto 3657 plate for later use;
2.6 The cell culture plate was taken out and left to stand at room temperature for 10 min, then […] the compound diluted in step 2.4 was added into corresponding wells, and the cell culture plate was left to stand at 25° C. for 30 min; and
2.7 10 μL of the compound diluted in step 2.5 was added into the corresponding experimental wells with FLIPR Tetra, and data was collected.
The antagonistic activity of the compounds of the present invention on the human NK-3 receptor was determined through the above experiments, to obtain inhibition curves of the compounds of the present invention and determine concentrations (IC50) of the corresponding compounds that inhibit 50% of the reference agonist.

SMILES | IC50 [nM]
Cc1nsc(-c2nc(N3CCCC3=O)c3n2CCN(C(=O)c2ccc(F)cc2C)[C@@H]3C)n1 [Compound 128, (R)-1-(7-(4-fluoro-2-methylbenzoyl)-8-methyl-3-(3-methyl-1,2,4-thiadiazol-5-yl)-5,6,7,8-tetrahydroimidazo[1,5-a]pyrazin-1-yl)pyrrolidin-2-one] | 84.6
Cc1nsc(-c2nc(N(C)S(C)(=O)=O)c3n2CCN(C(=O)c2ccc(F)cc2)[C@@H]3C)n1 [Compound 064, (R)—N-(7-(4-fluorobenzoyl)-8-methyl-3-(3-methyl-1,2,4-thiadiazol-5-yl)-5,6,7,8-tetrahydroimidazo[1,5-a]pyrazin-1-yl)-N-methylmethanesulfonamide] | 80.1
Cc1nsc(-c2nc([C@H]3CCCC3=O)c3n2CCN(C(=O)c2ccc(F)cc2)[C@@H]3C)n1 [Compound 211, (R)-2-((R)-7-(4-fluorobenzoyl)-8-methyl-3-(3-methyl-1,2,4-thiadiazol-5-yl)-5,6,7,8-tetrahydroimidazo[1,5-a]pyrazin-1-yl)cyclopentan-1-one] | 284
COCCc1nc(-c2nc(C)ns2)n2c1C(C)N(C(=O)c1ccc(F)cc1)CC2 (racemic) [Compound 204, rac-(R)-(4-fluorophenyl)(1-(2-methoxyethyl)-8-methyl-3-(3-methyl-1,2,4-thiadiazol-5-yl)-5,6-dihydroimidazo[1,5-a]pyrazin-7 (8H)-yl)methanone] | 109
CC(=O)Cc1nc(-c2nc(C)ns2)n2c1[C@@H](C)N(C(=O)c1ccc(F)cc1)CC2 [Compound 214, (R)-1-(7-(4-fluorobenzoyl)-8-methyl-3-(3-methyl-1,2,4-thiadiazol-5-yl)-5,6,7,8-tetrahydroimidazo[1,5-a]pyrazin-1-yl)propan-2-one] | 246
Cc1nsc(-c2nc(-c3ccco3)c3n2CCN(C(=O)c2ccc(F)cc2)[C@@H]3C)n1 [Compound 218, (R)-(4-fluorophenyl)(1-(furan-2-yl)-8-methyl-3-(3-methyl-1,2,4-thiadiazol-5-yl)-5,6-dihydroimidazo[1,5-a]pyrazin-7 (8H)-yl)methanone] | 225
Cc1nsc(-c2nc(-c3ccnnc3)c3n2CCN(C(=O)c2ccc(F)cc2)[C@@H]3C)n1 [Compound 028, (R)-(4-fluorophenyl)(8-methyl-3-(3-methyl-1,2,4-thiadiazol-5-yl)-1-(pyridazin-4-yl)-5,6-dihydroimidazo[1,5-a]pyrazin-7 (8H)-yl)methanone] | 56.3
Cc1nsc(-c2nc(N3CC=CC3=O)c3n2CCN(C(=O)c2ccc(F)cc2)[C@@H]3C)n1 [Compound 096, (R)-1-(7-(4-fluorobenzoyl)-8-methyl-3-(3-methyl-1,2,4-thiadiazol-5-yl)-5,6,7,8-tetrahydroimidazo[1,5-a]pyrazin-1-yl)-1,5-dihydro-2H-pyrrol-2-one] | 67.9
Cc1nsc(-c2nc(-c3ccncc3)c3n2CCN(C(=O)c2ccc(F)cc2)C3C)n1 (centres unmarked) [Compound 005, (4-fluorophenyl)(8-methyl-3-(3-methyl-1,2,4-thiadiazol-5-yl)-1-(pyridin-4-yl)-5,6-dihydroimidazo[1,5-a]pyrazin-7 (8H)-yl)methanone] | 64.6

Now those with a lower IC50, led by results:

IC50 [nM] | SMILES
51.9 | Cc1nsc(-c2nc(N3Cc4ccccc4CC3=O)c3n2CCN(C(=O)c2ccc(F)cc2)[C@@H]3C)n1 [Compound 100, (R)-2-(7-(4-fluorobenzoyl)-8-methyl-3-(3-methyl-1,2,4-thiadiazol-5-yl)-5,6,7,8-tetrahydroimidazo[1,5-a]pyrazin-1-yl)-1,4-dihydroisoquinolin-3 (2H)-one]
26.9 | CC(=O)N(C)c1nc(-c2nc(C)ns2)n2c1[C@@H](C)N(C(=O)c1ccc(F)cc1)CC2 [Compound 060, (R)—N-(7-(4-fluorobenzoyl)-8-methyl-3-(3-methyl-1,2,4-thiadiazol-5-yl)-5,6,7,8-tetrahydroimidazo[1,5-a]pyrazin-1-yl)-N-methylacetamide]
28 | Cc1nsc(-c2nc(N3CCCC3=O)c3n2CCN(C(=O)c2cc(F)c(F)c(F)c2)[C@@H]3C)n1 [Compound 220, (R)-1-(8-methyl-3-(3-methyl-1,2,4-thiadiazol-5-yl)-7-(3,4,5-trifluorobenzoyl)-5,6,7,8-tetrahydroimidazo[1,5-a]pyrazin-1-yl)pyrrolidin-2-one]
42.5 | Cc1nsc(-c2nc(N3C[C@H](N)CC3=O)c3n2CCN(C(=O)c2ccc(F)cc2)[C@@H]3C)n1 [Compound 129]
50.6 | Cc1nsc(-c2nc(N3CCOCC3)c3n2CCN(C(=O)c2ccc(F)cc2)[C@@H]3C)n1 [Compound 033, (R)-(4-fluorophenyl)(8-methyl-3-(3-methyl-1,2,4-thiadiazol-5-yl)-1-morpholino-5,6-dihydroimidazo[1,5-a]pyrazin-7 (8H)-yl)methanone]
16.8 | Cc1nsc(-c2nc(N3CCOCC3=O)c3n2CCN(C(=O)c2ccc(F)cc2)[C@@H]3C)n1 [Compound 072, (R)-4-(7-(4-fluorobenzoyl)-8-methyl-3-(3-methyl-1,2,4-thiadiazol-5-yl)-5,6,7,8-tetrahydroimidazo[1,5-a]pyrazin-1-yl)morpholin-3-one]
5.7 | Cc1nsc(-c2nc(N3C[C@H](O)CC3=O)c3n2CCN(C(=O)c2ccc(F)cc2)[C@@H]3C)n1 [Compound 103, (R)-1-((R)-7-(4-fluorobenzoyl)-8-methyl-3-(3-methyl-1,2,4-thiadiazol-5-yl)-5,6,7,8-tetrahydroimidazo[1,5-a]pyrazin-1-yl)-4-hydroxypyrrolidin-2-one]
11.9 | Cc1nsc(-c2nc(N3CCC(O)CC3=O)c3n2CCN(C(=O)c2ccc(F)cc2)[C@@H]3C)n1 (stereo partly drawn) [Compound 116, 1-[(R)-7-(4-fluorobenzoyl)-8-methyl-3-(3-methyl-1,2,4-thiadiazol-5-yl)-5,6,7,8-tetrahydroimidazo[1,5-a]pyrazin-1-yl]-4-hydroxypiperidin-2-one]
18.8 | C[C@@H]1c2c(N3C[C@H](O)CC3=O)nc(-c3nc(C(F)(F)F)cs3)n2CCN1C(=O)c1ccc(F)cc1 [Compound 120, (R)-1-((R)-7-(4-fluorobenzoyl)-8-methyl-3-(4-(trifluoromethyl)thiazol-2-yl)-5,6,7,8-tetrahydroimidazo[1,5-a]pyrazin-1-yl)-4-hydroxypyrrolidin-2-one]
29.6 | Cc1cc(-c2nc(-c3nc(C)ns3)n3c2[C@@H](C)N(C(=O)c2ccc(F)cc2)CC3)ccn1 [Compound 043, (R)-(4-fluorophenyl)(8-methyl-3-(3-methyl-1,2,4-thiadiazol-5-yl)-1-(2-methylpyridin-4-yl)-5,6-dihydroimidazo[1,5-a]pyrazin-7 (8H)-yl)methanone]
7.02 | Cc1nsc(-c2nc(-c3ccncc3F)c3n2CCN(C(=O)c2ccc(F)cc2)[C@@H]3C)n1 [Compound 046, (R)-(4-fluorophenyl)(1-(3-fluoropyridin-4-yl)-8-methyl-3-(3-methyl-1,2,4-thiadiazol-5-yl)-5,6-dihydroimidazo[1,5-a]pyrazin-7 (8H)-yl)methanone]
